molecular target: T1, Interstitial collagenase (Homo sapiens, UniProt P03956); assay: Inhibitory activity towards human recombinant fibroblast collagenase
T1 sequence (P03956 whole entry): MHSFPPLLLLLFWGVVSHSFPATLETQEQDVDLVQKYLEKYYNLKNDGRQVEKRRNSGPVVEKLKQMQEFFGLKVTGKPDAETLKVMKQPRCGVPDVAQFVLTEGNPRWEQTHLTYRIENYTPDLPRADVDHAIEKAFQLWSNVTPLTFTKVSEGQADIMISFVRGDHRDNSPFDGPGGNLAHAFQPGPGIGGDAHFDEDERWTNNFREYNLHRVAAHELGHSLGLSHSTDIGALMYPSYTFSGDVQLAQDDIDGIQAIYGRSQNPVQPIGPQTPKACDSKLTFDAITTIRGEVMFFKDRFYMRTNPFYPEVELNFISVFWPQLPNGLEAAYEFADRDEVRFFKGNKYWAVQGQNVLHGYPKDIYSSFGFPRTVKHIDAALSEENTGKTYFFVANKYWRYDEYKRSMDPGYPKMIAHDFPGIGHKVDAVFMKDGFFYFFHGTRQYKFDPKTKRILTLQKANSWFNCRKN

Q: `O=C(CCC(=O)N[C@@H](Cc1ccccc1)C(=O)NCc1ccccc1)NO` was tested. Which IC50 did it give?
A: > 10 µM

Q: Which IC50 does the source give for `O=C(C[C@@H](CCC1CCCCC1)C(=O)N[C@@H](Cc1ccccc1)C(=O)NCc1ccccc1)NO` here?
A: > 10 µM

Q: For `CC(C)S[C@H](CC(=O)NO)C(=O)N[C@@H](Cc1ccccc1)C(=O)NCc1ccccc1`, which IC50 is on record?
A: 1.9 µM

Q: Which IC50 does the source give for `CN(C)C[C@H](CC(=O)NO)C(=O)N[C@@H](Cc1ccccc1)C(=O)NCc1ccccc1` here?
A: > 10 µM

Q: Which IC50 does the source give for `O=C(C[C@H](C(=O)N[C@@H](Cc1ccccc1)C(=O)NCc1ccccc1)C1CCCCC1)NO` here?
A: 1.5 µM

Q: How did the IC50 turn out when `O=C(C[C@@H](CC1CCCC1)C(=O)N[C@@H](Cc1ccccc1)C(=O)NCc1ccccc1)NO` was run?
A: 0.02 µM

Q: With `O=C(C[C@H](C(=O)N[C@@H](Cc1ccccc1)C(=O)NCc1ccccc1)c1ccc(-c2ccccc2)cc1)NO` as the compound, how does the IC50 read?
A: > 10 µM

Q: Which IC50 does the source give for `O=C(C[C@@H](Cc1ccc2ccccc2c1)C(=O)N[C@@H](Cc1ccccc1)C(=O)NCc1ccccc1)NO` here?
A: > 10 µM

Q: How did the IC50 turn out when `O=C(C[C@@H](Cc1ccccc1)C(=O)N[C@@H](Cc1ccccc1)C(=O)NCc1ccccc1)NO` was run?
A: 7 µM

Q: With `O=C(C[C@H](C(=O)N[C@@H](Cc1ccccc1)C(=O)NCc1ccccc1)c1ccccc1)NO` as the compound, how does the IC50 read?
A: 17 µM

Q: `O=C(C[C@H](C(=O)N[C@@H](Cc1ccccc1)C(=O)NCc1ccccc1)c1cccc2ccccc12)NO` was tested. Which IC50 did it give?
A: > 10 µM

Q: With `O=C(C[C@@H](CC1CCCCC1)C(=O)N[C@@H](Cc1ccccc1)C(=O)NCc1ccccc1)NO` as the compound, how does the IC50 read?
A: 4.6 µM

Q: `O=C(C[C@@H](CCc1ccccc1)C(=O)N[C@@H](Cc1ccccc1)C(=O)NCc1ccccc1)NO` was tested. Which IC50 did it give?
A: 4.1 µM

Q: For `CC(C)C[C@H](CC(=O)NO)C(=O)N[C@@H](Cc1ccccc1)C(=O)NCc1ccccc1`, which IC50 is on record?
A: 0.03 µM

Q: How did the IC50 turn out when `CC(C)C[C@@H](CC(=O)NO)C(=O)N[C@@H](Cc1ccccc1)C(=O)NCc1ccccc1` was run?
A: > 10 µM

Q: How did the IC50 turn out when `C[C@H](CC(=O)NO)C(=O)N[C@@H](Cc1ccccc1)C(=O)NCc1ccccc1` was run?
A: > 10 µM

Source: ChEMBL document CHEMBL1131284, “Hydroxamate-based inhibitors of low affinity IgE receptor (CD23) processing” (Bioorg Med Chem Lett, 1998)
